Type in all cases: in vivo
The test system of assay [1] is IPOHE: ivyleaf morningglory (Ipomoea hederecea). Nature of the assay: Pre-emergent Test I herbicidal activity. As to conditions: pre-emergence, 336 h, read-out: Visual Growth Reduction (%) 14 Days After Application, IPOHE; for pest or weed control at 3840 g/ha: 3.84 kg ai/ha. The procedure: (§1) Pre-emergent Test I Seeds of test species were planted into round plastic pots (5-inch diameter) containing sandy loam soil. After planting, all pots were sub-irrigated 16 h prior to compound application. Compounds were dissolved in a 97:3 v/v (volume/volume) mixture of acetone and dimethyl sulfoxide (DMSO) and diluted to the appropriate concentration in a final application solution containing water, acetone, isopropanol, DMSO and Agri-dex (crop oil concentrate) in a 59:23:15:1.0:1.5 v/v ratio and 0.02% w/v (weight/volume) of Triton X-155 to obtain the spray solution containing the highest application rate. Additional application rates were obtained by serial dilution of the high rate solution with the above application solution. Formulated compound (2.7 mL) was applied pipetted evenly over the soil surface followed by incorporation with water (15 mL). Following treatment, pots were returned to the greenhouse for the duration of the experiment. The greenhouse was programmed for an approximate 15 h photoperiod which was maintained at about 23-29° C. during the day and 22-28° C. during the night. Nutrients and water were added on a regular basis through surface irrigation and supplemental lighting was provided with overhead metal halide 1000-Watt lamps as necessary. Herbicidal effect ratings were obtained 14 days after treatment. All evaluations were made relative to appropriate controls on a scale of 0 to 100 where 0 represents no herbicidal effect and 100 represents plant death or lack of emergence from the soil.

The test system of assay [2] is HELAN: sunflower (Helianthus annuus). Nature of the assay: Pre-emergent Test I herbicidal activity. The following applies: pre-emergence, 336 h, read-out: Visual Growth Reduction (%) 14 Days After Application, HELAN; for pest or weed control at 3840 g/ha: 3.84 kg ai/ha. As for the experimental part: as §1
Assay [3] concerns AMARE: redroot pigwseed (Amaranthus retroflexus). Put plainly: Pre-emergent Test I herbicidal activity. The following applies: pre-emergence, 336 h, read-out: Visual Growth Reduction (%) 14 Days After Application, AMARE; for pest or weed control at 3840 g/ha: 3.84 kg ai/ha. As for the experimental part:
as §1

Assay [4] deals with ECHCG: barnyardgrass (Echinochloa crus-galli). Put plainly: Pre-emergent Test I herbicidal activity. As to conditions: pre-emergence, 336 h, read-out: Visual Growth Reduction (%) 14 Days After Application, ECHCG; for pest or weed control at 3840 g/ha: 3.84 kg ai/ha. The procedure: as §1
In assay [5] the test system is AVEFA: wild oats (Avena fatua). Put plainly: Pre-emergent Test I herbicidal activity. As to conditions: pre-emergence, 336 h, read-out: Visual Growth Reduction (%) 14 Days After Application, AVEFA; for pest or weed control at 3840 g/ha: 3.84 kg ai/ha. As for the experimental part: as §1
For assay [6], the system named is SETFA: giant foxtail (Setaria faberi). Nature of the assay: Pre-emergent Test I herbicidal activity. The following applies: pre-emergence, 336 h, read-out: Visual Growth Reduction (%) 14 Days After Application, SETFA; for pest or weed control at 3840 g/ha: 3.84 kg ai/ha. As for the experimental part:
as §1

Assay [7] deals with VERPE: bird's-eye speedwell (veronica persica). Put plainly: Post-emergent Test III, herbicidal activity in wheat and barley. As to conditions: for pest or weed control at 35 g/ha / pest or weed control at 70 g/ha / pest or weed control at 140 g/ha: Veronica persica, post-emergence, 504 h, read-out: Visual Growth Reduction (%) 21 Days After Application VERPE; for pest or weed control at 35 g/ha: 35 g ai/ha; for pest or weed control at 70 g/ha: 70 g ai/ha; for pest or weed control at 140 g/ha: 140 g ai/ha; for GR50 VERPE / GR80 VERPE: probit analysis, 21 days after application; for GR50 VERPE: dose for growth reduction of 50 percent; for GR80 VERPE: dose for growth reduction of 80 percent. In a few lines:
(§2)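 GR20, GR50, GR80 and GR90 come from probit analysis of visual injury scores (0 = none, 100 = complete kill) taken 21 d after treatment. Foliar application was by track sprayer delivering 187 L/ha at five rates, from high down to 1/16×, onto greenhouse plants at the 2–3 leaf stage, with solvent-blank controls.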

The test system of assay [8] is BROTE: downy brome (Bromus tectorum). The assay is described as above. The following applies: for pest or weed control at 35 g/ha / pest or weed control at 70 g/ha / pest or weed control at 140 g/ha: Bromus tectorum, post-emergence, 504 h, read-out: Visual Growth Reduction (%) 21 Days After Application BROTE; for pest or weed control at 35 g/ha: 35 g ai/ha; for pest or weed control at 70 g/ha: 70 g ai/ha; for pest or weed control at 140 g/ha: 140 g ai/ha; for GR50 BROTE / GR80 BROTE: probit analysis, 21 days after application; for GR50 BROTE: dose for growth reduction of 50 percent; for GR80 BROTE: dose for growth reduction of 80 percent. In a few lines:
as §2

For assay [9], the system named is PAPRH: common poppy (Papaver rhoeas). Described as above. As to conditions: for pest or weed control at 35 g/ha / pest or weed control at 70 g/ha / pest or weed control at 140 g/ha: Papaver rhoeas, post-emergence, 504 h, read-out: Visual Growth Reduction (%) 21 Days After Application PAPRH; for pest or weed control at 35 g/ha: 35 g ai/ha; for pest or weed control at 70 g/ha: 70 g ai/ha; for pest or weed control at 140 g/ha: 140 g ai/ha; for GR50 PAPRH / GR80 PAPRH: probit analysis, 21 days after application; for GR50 PAPRH: dose for growth reduction of 50 percent; for GR80 PAPRH: dose for growth reduction of 80 percent. Summed up: as §2

The values below come from patent US9113629B2, “4-amino-6-(4-substituted-phenyl)-picolinates and 6-amino-2-(4-substituted-phenyl)-pyrimidine-4-carboxylates and their use as herbicides” (DOW AGROSCIENCES LLC, priority 2013, dated 2015).

The structures appear in SMILES notation.

As to `COC(=O)c1nc(-c2ccc(C#N)cc2F)cc(N)c1Cl` [Compound 16], the pest or weed control at 3840 g/ha in [1] is 95 to 100%; in assay [2], 95 to 100%; in assay [3] it was 95 to 100%; in assay [4], 30 to 44%; in assay [5] it was 30 to 44%; in assay [6], 0 to 29%.
With `COC(=O)c1nc(-c2ccc(I)cc2)c(F)c(N)c1Cl` [Compound 118, Methyl 4-amino-6-(4-iodophenyl)-3-chloro-5-fluoropicolinate], in assay [7], the pest or weed control at 35 g/ha is 85 to 94%, the pest or weed control at 70 g/ha is 85 to 94%, the pest or weed control at 140 g/ha lay in the range of 95 to 100% and the “GR50 VERPE” value is given as 5 g ai/ha. Besides, the “GR80 VERPE” value in assay [7] is on record as 17 g ai/ha. Moreover, in [8], the pest or weed control at 35 g/ha is 60 to 74%, the pest or weed control at 70 g/ha lay in the range of 85 to 94%, the pest or weed control at 140 g/ha fell in the range of 85 to 94% and the “GR50 BROTE” value amounted to 31 g ai/ha. For the same molecule, the “GR80 BROTE” value in assay [8] turned out to be 64 g ai/ha. For the same molecule, in assay [9], the pest or weed control at 35 g/ha lay in the range of 95 to 100%, the pest or weed control at 70 g/ha was 95 to 100%, the pest or weed control at 140 g/ha was in the range of 95 to 100% and the “GR50 PAPRH” value was found to be 1 g ai/ha. In addition, the “GR80 PAPRH” value in assay [9] is 1 g ai/ha. The pest or weed control at 2320 g/ha in assay [1] (2.32 kg ai/ha) was 95 to 100%. For the same molecule, the pest or weed control at 2320 g/ha in assay [2] (2.32 kg ai/ha) was in the range of 95 to 100%. Moreover, the pest or weed control at 2320 g/ha in assay [3] (2.32 kg ai/ha) lay within 95 to 100%. In addition, in assay [4] (2.32 kg ai/ha), the pest or weed control at 2320 g/ha lay in the range of 95 to 100%. Further, the pest or weed control at 2320 g/ha in assay [5] (2.32 kg ai/ha) is 95 to 100%.
Take `COC(=O)c1nc(-c2ccc(C#N)cc2)c(F)c(N)c1Cl` [Compound 142]: in assay [7], the pest or weed control at 35 g/ha was in the range of 75 to 84%, the pest or weed control at 70 g/ha lay in the range of 85 to 94%, the pest or weed control at 140 g/ha fell in the range of 85 to 94% and the “GR50 VERPE” value is listed as 5 g ai/ha. Besides, in assay [7], the “GR80 VERPE” value worked out at 40 g ai/ha. In [8], the pest or weed control at 35 g/ha was 0 to 29%, the pest or weed control at 70 g/ha lay within 0 to 29%, the pest or weed control at 140 g/ha fell in the range of 0 to 29% and the “GR50 BROTE” value was above 140 g ai/ha. For the same molecule, the “GR80 BROTE” value in assay [8] is above 140 g ai/ha. For the same molecule, in [9], the pest or weed control at 35 g/ha is 85 to 94%, the pest or weed control at 70 g/ha lay within 95 to 100%, the pest or weed control at 140 g/ha lay within 95 to 100% and the “GR50 PAPRH” value came to 1 g ai/ha. Besides, the “GR80 PAPRH” value in assay [9] was 4 g ai/ha. Besides, the pest or weed control at 3840 g/ha in [1] was 95 to 100%. Also, the pest or weed control at 3840 g/ha in assay [2] lay within 95 to 100%. In [3], the pest or weed control at 3840 g/ha is 95 to 100%. For the same molecule, in [4], the pest or weed control at 3840 g/ha lay in the range of 30 to 44%. The pest or weed control at 3840 g/ha in assay [5] was 95 to 100%.
For the molecule `N#Cc1ccc(-c2nc(C(=O)O)c(Cl)c(N)c2F)cc1F` [Compound 156], the pest or weed control at 4040 g/ha in [1] (4.04 kg ai/ha) fell in the range of 95 to 100%; in assay [2] (4.04 kg ai/ha), 95 to 100%; in [3] (4.04 kg ai/ha), 95 to 100%; in [4] (4.04 kg ai/ha), 95 to 100%; in assay [5] (4.04 kg ai/ha), 75 to 84%; in [6] (4.04 kg ai/ha), 95 to 100%.
For `COC(=O)c1nc(-c2ccccc2)c(F)c(N)c1Cl` [Compound 181], the pest or weed control at 1760 g/ha in assay [1] (1.76 kg ai/ha) lay within 85 to 94%; in assay [2] (1.76 kg ai/ha), 85 to 94%; in [3] (1.76 kg ai/ha) it was 95 to 100%; in [5] (1.76 kg ai/ha) it was 0 to 29%; in [6] (1.76 kg ai/ha) it was 75 to 84%.
For `COC(=O)c1nc(-c2ccc(C(F)F)c(F)c2)cc(N)c1Cl` [Compound 196], the pest or weed control at 3840 g/ha in assay [1] fell in the range of 95 to 100%; in [2], 95 to 100%; in assay [3], 95 to 100%; in assay [4], 85 to 94%; in [6] it was 95 to 100%.
With `C=Cc1c(C(=O)OC)nc(-c2ccc(Cl)c(F)c2)c(F)c1N` [Compound 215, methyl 4-amino-6-(4-chloro-3-fluorophenyl)-5-fluoro-3-vinylpicolinate], the pest or weed control at 3960 g/ha fell in the range of 95 to 100% in [1] (3.96 kg ai/ha); 95 to 100% in [2] (3.96 kg ai/ha); 95 to 100% in assay [3] (3.96 kg ai/ha); 95 to 100% in [4] (3.96 kg ai/ha); 85 to 94% in assay [5] (3.96 kg ai/ha); 85 to 94% in assay [6] (3.96 kg ai/ha).
